This assay has as its target T1, TTD-PHD RR295/296AA mutant vs. H3K9me3 peptide (Homo sapiens, UniProt Q96T88, R295A/R296A).
T1 construct: made in house; host or cells: E. coli (host printed for TTD-PHD in general: Rosetta (DE3))
T1 sequence (Q96T88 123-366 R295A/R296A): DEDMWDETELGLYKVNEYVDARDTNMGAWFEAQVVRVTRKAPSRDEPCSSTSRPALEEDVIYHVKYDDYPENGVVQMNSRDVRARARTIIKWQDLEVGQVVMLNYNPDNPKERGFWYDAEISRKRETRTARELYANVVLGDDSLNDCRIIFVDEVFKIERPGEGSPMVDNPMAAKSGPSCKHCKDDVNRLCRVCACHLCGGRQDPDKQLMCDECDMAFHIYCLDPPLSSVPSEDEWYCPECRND
Nature of the assay: TR-FRET assay: TTD-PHD RR295/296AA mutant binding to H3K9me3 peptide. The class given is biochemical. Particulars: 2.5 mM 2,4-lutidine. The method, then: The fragment screen was carried out on low volume 384-well white plates (Corning 4512) and the assay was performed at room temperature. […] After 1 h of incubation, the fluorescent signals at 665 nm and 620 nm of each plate were measured by the Tecan Infinite M1000 plate reader (excitation 340 nm, 60 μs lag time, and 500 μs integration time) and the TR-FRET signal was calculated by the ratio of 665 nm/620 nm fluorescent signal. For the fragment screen, on seven of the library plates there were 32-wells of DMSO control, while there were 8-wells of DMSO control in the last plate. […] The only difference was that the final concentration of […] assay, while the final concentration of His6-UHRF1-FL was 200 nM and biotin-H3K9me3 peptide was 100 nM for the His6-UHRF1-FL TR-FRET assay. The buffer pH was 7.5 for the His6-TTD-PHD and His6-UHRF1-FL assays.

As to `Cc1ccnc(C)c1` [2,4-lutidine], the “inhibition of binding to H3K9me3 peptide” value was determined as 57.6%.

Source of the values: PMC7806715, “Discovery of small molecules targeting the tandem tudor domain of the epigenetic factor UHRF1 using fragment-based ligand discovery” (Scientific Reports, 2021).
